Experimental data: ChEMBL document CHEMBL1201862, “PubChem BioAssay data set” (2004)
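Exposure lasted 48 hours, with cells grown in 96-well plates and compounds tested at five concentrations. GI50: concentration for 50% inhibition of growth.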 The source made the active and inactive calls. Cut-off read from the data, not from the text of the source: active = GI50 up to about 1.1 µM and inactive = higher.

How the values were obtained:
Test in all cases: NCI anticancer screen, dose series, 48 h
[1] = system: U-251
[2] = system: RXF 393
[3] = system: OVCAR-8
[4] = system: CCRF-CEM
[5] = system: EKVX
[6] = system: HCC 2998
[7] = system: HOP-92
[8] = system: SK-MEL-28
[9] = system: NCI/ADR-RES
[10] = system: SN12C
[11] = system: LOX IMVI
[12] = system: MOLT-4
[13] = system: PC-3
[14] = system: UACC-62
[15] = system: SW-620
[16] = system: SF-295
[17] = system: OVCAR-3
[18] = system: OVCAR-5
[19] = system: NCI-H522
[20] = system: NCI-H460

Row | SMILES | GI50 [1] | GI50 [2] | GI50 [3] | GI50 [4] | GI50 [5] | GI50 [6] | GI50 [7] | GI50 [8] | GI50 [9] | GI50 [10] | GI50 [11] | GI50 [12] | GI50 [13] | GI50 [14] | GI50 [15] | GI50 [16] | GI50 [17] | GI50 [18] | GI50 [19] | GI50 [20]
1 | Nc1ccc(-c2nc3ccccc3s2)cc1Br | 57.5 µM (inactive) | > 38.9 µM (inactive) | > 75.2 µM (inactive) | 32 µM (inactive) | 26.4 µM (inactive) | 72.6 µM (inactive) | 26.5 µM (inactive) | > 100 µM (inactive) | > 100 µM (inactive) | > 100 µM (inactive) | > 80.9 µM (inactive) | 31.4 µM (inactive) | 69.7 µM (inactive) | > 100 µM (inactive) | > 100 µM (inactive) | 66.7 µM (inactive) | < 0.01 µM (active) | 0.134 µM (active) | > 100 µM (inactive) | 4.31 µM (inactive)
2 | COc1cccc(C2CC(C)(O)Oc3cc4c(cc32)OCO4)c1O (stereo not given) | 24.2 µM (inactive) | 26.3 µM (inactive) | 25.7 µM (inactive) | 13.3 µM (inactive) | 34.6 µM (inactive) | 25.6 µM (inactive) | 22.4 µM (inactive) | 35.2 µM (inactive) | 19.7 µM (inactive) | 28.7 µM (inactive) | 25.3 µM (inactive) | 37.4 µM (inactive) | 27.2 µM (inactive) | 15.7 µM (inactive) | 22.8 µM (inactive) | 19.4 µM (inactive) | 15.6 µM (inactive) | 27 µM (inactive) | 20.1 µM (inactive) | 32.6 µM (inactive)
3 | Nc1nc(N)c2nnn(C[C@H]3CC[C@@H](CO)C3)c2n1 | > 100 µM (inactive) | > 100 µM (inactive) | > 100 µM (inactive) | > 100 µM (inactive) | > 100 µM (inactive) | > 100 µM (inactive) | > 100 µM (inactive) | > 100 µM (inactive) | > 100 µM (inactive) | 38.5 µM (inactive) | > 100 µM (inactive) | > 100 µM (inactive) | > 100 µM (inactive) | > 100 µM (inactive) | > 100 µM (inactive) | > 100 µM (inactive) | > 100 µM (inactive) | > 100 µM (inactive) | > 100 µM (inactive) | > 100 µM (inactive)
4 | COc1cccc(NC(=O)CC(=O)N2N=C(C)C(/N=N\c3ccc(S(=O)(=O)c4ccc(/N=N/C5C(=O)N(C(=O)CC(=O)Nc6cccc(OC)c6)N=C5C)cc4)cc3)C2=O)c1 (stereo not given) | > 100 µM (inactive) | > 100 µM (inactive) | > 100 µM (inactive) | > 100 µM (inactive) | > 100 µM (inactive) | > 100 µM (inactive) | > 100 µM (inactive) | > 100 µM (inactive) | > 100 µM (inactive) | > 100 µM (inactive) | > 100 µM (inactive) | > 100 µM (inactive) | > 100 µM (inactive) | > 100 µM (inactive) | > 100 µM (inactive) | > 100 µM (inactive) | > 100 µM (inactive) | > 100 µM (inactive) | > 100 µM (inactive) | > 100 µM (inactive)
5 | Cc1ccc(C2=NN=C3C(c4ccccc4)=Nc4ccccc4N3C2)cc1 | 6.49 µM (inactive) | 4.41 µM (inactive) | 6.07 µM (inactive) | 1.88 µM (inactive) | 10.9 µM (inactive) | 19.6 µM (inactive) | 24.1 µM (inactive) | > 38 µM (inactive) | 3.93 µM (inactive) | 15.5 µM (inactive) | 5.65 µM (inactive) | 1.34 µM (inactive) | 11.8 µM (inactive) | 15.7 µM (inactive) | 5.51 µM (inactive) | 12 µM (inactive) | 2.61 µM (inactive) | 18 µM (inactive) | 2.92 µM (inactive) | 3.56 µM (inactive)
6 | Cc1cc2nc(C=C(C(F)(F)F)C(F)(F)F)oc2cc1C | 3.33 µM (inactive) | 2.49 µM (inactive) | 2.46 µM (inactive) | 1.06 µM (active) | 3.15 µM (inactive) | 3.08 µM (inactive) | > 10 µM (inactive) | > 10 µM (inactive) | 2.51 µM (inactive) | 2.41 µM (inactive) | 2.09 µM (inactive) | 1.85 µM (inactive) | 2.47 µM (inactive) | 3.32 µM (inactive) | 1.73 µM (inactive) | > 10 µM (inactive) | 1.95 µM (inactive) | 3.04 µM (inactive) | 3.12 µM (inactive) | 3.92 µM (inactive)
7 | COc1cc(/C=C/C(=N\NS(=O)(=O)c2ccc(C)cc2)c2sc(NNC(C)=O)nc2C)ccc1O | > 100 µM (inactive) | > 100 µM (inactive) | > 100 µM (inactive) | > 100 µM (inactive) | > 100 µM (inactive) | > 100 µM (inactive) | > 100 µM (inactive) | > 100 µM (inactive) | > 100 µM (inactive) | > 100 µM (inactive) | > 100 µM (inactive) | > 100 µM (inactive) | > 100 µM (inactive) | > 100 µM (inactive) | > 100 µM (inactive) | > 100 µM (inactive) | > 100 µM (inactive) | > 100 µM (inactive) | > 100 µM (inactive) | > 100 µM (inactive)
